The target in assay [1] is Serine/threonine-protein kinase 33 (Homo sapiens) (UniProt Q9BYT3). Description: Inhibition of STK33 (unknown origin) assessed as residual activity at 100 nM by KINOMEscan analysis relative to control.
The target of assay [2] is T1, Muscle, skeletal receptor tyrosine-protein kinase (Homo sapiens) (UniProt O15146).
T1 sequence (whole entry): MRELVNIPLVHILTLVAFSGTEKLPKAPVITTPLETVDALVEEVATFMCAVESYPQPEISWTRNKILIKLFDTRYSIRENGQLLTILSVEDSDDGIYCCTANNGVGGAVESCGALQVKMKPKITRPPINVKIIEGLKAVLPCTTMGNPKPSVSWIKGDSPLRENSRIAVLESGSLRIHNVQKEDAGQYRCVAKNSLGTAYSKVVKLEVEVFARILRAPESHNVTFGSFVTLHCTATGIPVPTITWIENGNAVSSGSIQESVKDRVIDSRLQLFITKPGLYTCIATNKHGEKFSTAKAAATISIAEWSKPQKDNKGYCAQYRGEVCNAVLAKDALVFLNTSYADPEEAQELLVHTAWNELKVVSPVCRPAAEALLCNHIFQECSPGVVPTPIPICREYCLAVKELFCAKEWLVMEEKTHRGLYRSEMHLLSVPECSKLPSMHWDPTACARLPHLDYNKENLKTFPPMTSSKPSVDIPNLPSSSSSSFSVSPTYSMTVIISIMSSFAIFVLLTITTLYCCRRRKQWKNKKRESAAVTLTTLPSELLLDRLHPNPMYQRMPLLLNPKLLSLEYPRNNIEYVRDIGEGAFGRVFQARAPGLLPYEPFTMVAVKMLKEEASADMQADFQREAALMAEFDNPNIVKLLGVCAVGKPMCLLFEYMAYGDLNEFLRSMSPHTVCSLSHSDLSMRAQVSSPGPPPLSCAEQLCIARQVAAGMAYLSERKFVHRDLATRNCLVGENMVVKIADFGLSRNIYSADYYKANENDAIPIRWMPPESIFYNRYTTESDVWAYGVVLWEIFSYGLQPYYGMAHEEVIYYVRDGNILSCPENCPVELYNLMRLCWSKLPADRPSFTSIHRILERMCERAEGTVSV
Description: Inhibition of MUSK (unknown origin) assessed as residual activity at 100 nM by KINOMEscan analysis relative to control.

Assay [3] has as its target T2, Myosin light chain kinase family member 4 (Homo sapiens) (UniProt Q86YV6).
T2 sequence (whole entry): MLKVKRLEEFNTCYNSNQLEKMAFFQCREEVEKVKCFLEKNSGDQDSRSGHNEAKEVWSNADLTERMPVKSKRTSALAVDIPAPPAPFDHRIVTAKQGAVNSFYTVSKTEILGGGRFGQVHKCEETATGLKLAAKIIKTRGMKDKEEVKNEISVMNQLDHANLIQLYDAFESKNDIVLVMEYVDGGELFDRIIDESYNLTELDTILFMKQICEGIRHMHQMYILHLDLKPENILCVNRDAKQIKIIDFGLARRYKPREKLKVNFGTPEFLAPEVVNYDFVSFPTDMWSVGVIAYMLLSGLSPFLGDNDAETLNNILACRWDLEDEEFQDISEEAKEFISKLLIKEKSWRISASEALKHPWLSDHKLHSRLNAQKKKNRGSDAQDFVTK
Description: Inhibition of MYLK4 (unknown origin) assessed as residual activity at 100 nM by KINOMEscan analysis relative to control.

Assay [4] concerns the target T3, Serine/threonine-protein kinase NLK (Homo sapiens) (UniProt Q9UBE8).
T3 sequence (whole entry): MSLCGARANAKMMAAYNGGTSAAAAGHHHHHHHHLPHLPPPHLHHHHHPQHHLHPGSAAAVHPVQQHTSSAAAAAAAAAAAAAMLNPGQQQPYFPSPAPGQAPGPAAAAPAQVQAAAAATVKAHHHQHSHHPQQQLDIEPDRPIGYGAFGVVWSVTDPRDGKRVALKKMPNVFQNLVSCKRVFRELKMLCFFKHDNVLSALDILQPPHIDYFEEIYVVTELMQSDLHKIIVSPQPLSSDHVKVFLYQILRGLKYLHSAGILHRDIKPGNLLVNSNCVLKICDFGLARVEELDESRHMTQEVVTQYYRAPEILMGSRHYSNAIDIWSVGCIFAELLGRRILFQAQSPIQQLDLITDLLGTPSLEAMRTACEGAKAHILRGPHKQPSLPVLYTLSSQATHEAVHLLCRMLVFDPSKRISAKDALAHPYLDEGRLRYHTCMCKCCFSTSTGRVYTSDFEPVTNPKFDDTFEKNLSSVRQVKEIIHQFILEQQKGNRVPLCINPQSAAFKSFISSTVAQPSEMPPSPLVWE
Description: Inhibition of NLK (unknown origin) assessed as residual activity at 100 nM by KINOMEscan analysis relative to control.

Assay [5] addresses Casein kinase I isoform alpha (Homo sapiens) (UniProt P48729). Description: Inhibition of CSNK1A1 (unknown origin) assessed as residual activity at 100 nM by KINOMEscan analysis relative to control.
The target of assay [6] is MAP kinase-interacting serine/threonine-protein kinase 1 (Homo sapiens) (UniProt Q9BUB5). Description: Inhibition of MKNK1 (unknown origin) assessed as residual activity at 100 nM by KINOMEscan analysis relative to control.
The species entered for assay [7] is Homo sapiens. Description: Inhibition of C-terminal RPS6KA4 kinetic domain 2 (unknown origin) assessed as residual activity at 100 nM by KINOMEscan analysis relative to control.
Assay [8] concerns the target G protein-coupled receptor kinase 4 (Homo sapiens) (UniProt P32298). Description: Inhibition of GRK4 (unknown origin) assessed as residual activity at 100 nM by KINOMEscan analysis relative to control.
For assay [9], the system named is SOS1-KRAS (Homo sapiens), Q07889+P01116 [G12C]. Briefly: Inhibition of N-terminal GST-tagged recombinant human KRAS G12C mutant (1 to 169 residues) expressed in Escherichia coli/N-terminal His10-tagged wild-type recombinant human SOS1 catalytic domain (564 to 1049 residues) expressed in Escherichia coli protein-protein interaction assessed as reduction in FRET signal by HTRF analysis. A general note: TR-FRET usually uses a lanthanide donor and a delayed reading to cut background.

For assay [10], the target named is LIM domain kinase 1 (Homo sapiens) (UniProt P53667). Briefly: Inhibition of LIMK1 (unknown origin) assessed as residual activity at 100 nM by KINOMEscan analysis relative to control.
In assay [11] the target is Protein-tyrosine kinase 2-beta (Homo sapiens) (UniProt Q14289). Description: Inhibition of PYK2 (unknown origin) assessed as residual activity at 100 nM by KINOMEscan analysis relative to control.

Active and inactive are the calls of the source. The rule behind the calls is not given here.

These results are taken from ChEMBL document CHEMBL5678818, “Discovery of potent SOS1 inhibitors that block RAS activation via disruption of the RAS-SOS1 interaction” (Proc Natl Acad Sci U S A, 2019).

Serine/threonine-protein kinase 33 (Homo sapiens), sequence (Q9BYT3 whole entry, looked up): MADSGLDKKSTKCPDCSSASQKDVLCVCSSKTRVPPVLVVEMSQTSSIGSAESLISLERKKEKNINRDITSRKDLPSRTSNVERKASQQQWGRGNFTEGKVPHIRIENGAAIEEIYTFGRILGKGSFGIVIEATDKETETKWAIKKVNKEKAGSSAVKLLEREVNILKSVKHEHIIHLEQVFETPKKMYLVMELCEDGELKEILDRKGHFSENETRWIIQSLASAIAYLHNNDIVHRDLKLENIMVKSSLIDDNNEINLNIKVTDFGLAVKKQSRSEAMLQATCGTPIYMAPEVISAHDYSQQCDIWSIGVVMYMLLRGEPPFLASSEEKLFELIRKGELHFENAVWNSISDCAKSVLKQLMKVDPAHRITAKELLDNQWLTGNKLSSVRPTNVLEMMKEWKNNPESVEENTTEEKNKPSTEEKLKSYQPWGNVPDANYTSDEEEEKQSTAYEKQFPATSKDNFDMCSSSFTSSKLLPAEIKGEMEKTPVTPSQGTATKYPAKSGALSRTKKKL
Casein kinase I isoform alpha (Homo sapiens), sequence (P48729 2-337 limits assumed): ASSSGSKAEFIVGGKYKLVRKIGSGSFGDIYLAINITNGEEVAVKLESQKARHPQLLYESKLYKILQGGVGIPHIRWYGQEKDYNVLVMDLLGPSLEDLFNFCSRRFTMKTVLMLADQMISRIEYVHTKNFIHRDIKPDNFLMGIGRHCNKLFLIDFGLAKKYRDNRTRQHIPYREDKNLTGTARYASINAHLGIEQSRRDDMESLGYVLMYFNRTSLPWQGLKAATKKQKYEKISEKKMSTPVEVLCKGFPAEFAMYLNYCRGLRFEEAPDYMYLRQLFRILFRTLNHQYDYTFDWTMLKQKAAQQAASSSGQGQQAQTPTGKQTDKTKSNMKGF
MAP kinase-interacting serine/threonine-protein kinase 1 (Homo sapiens), sequence (Q9BUB5 whole entry, looked up, the tested form may be a part): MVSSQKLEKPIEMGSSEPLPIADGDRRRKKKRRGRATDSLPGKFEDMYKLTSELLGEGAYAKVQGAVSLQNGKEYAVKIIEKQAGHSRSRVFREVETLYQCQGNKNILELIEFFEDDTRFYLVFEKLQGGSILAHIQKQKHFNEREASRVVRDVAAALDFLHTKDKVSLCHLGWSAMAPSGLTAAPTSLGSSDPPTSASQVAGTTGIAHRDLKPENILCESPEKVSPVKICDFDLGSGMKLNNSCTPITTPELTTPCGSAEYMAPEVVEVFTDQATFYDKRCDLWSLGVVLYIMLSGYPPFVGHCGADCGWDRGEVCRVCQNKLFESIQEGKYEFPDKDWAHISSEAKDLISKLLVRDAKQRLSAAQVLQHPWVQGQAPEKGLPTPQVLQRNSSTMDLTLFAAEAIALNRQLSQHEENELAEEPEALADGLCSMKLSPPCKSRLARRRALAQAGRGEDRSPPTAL
LIM domain kinase 1 (Homo sapiens), sequence (P53667 whole entry, looked up, the tested form may be a part): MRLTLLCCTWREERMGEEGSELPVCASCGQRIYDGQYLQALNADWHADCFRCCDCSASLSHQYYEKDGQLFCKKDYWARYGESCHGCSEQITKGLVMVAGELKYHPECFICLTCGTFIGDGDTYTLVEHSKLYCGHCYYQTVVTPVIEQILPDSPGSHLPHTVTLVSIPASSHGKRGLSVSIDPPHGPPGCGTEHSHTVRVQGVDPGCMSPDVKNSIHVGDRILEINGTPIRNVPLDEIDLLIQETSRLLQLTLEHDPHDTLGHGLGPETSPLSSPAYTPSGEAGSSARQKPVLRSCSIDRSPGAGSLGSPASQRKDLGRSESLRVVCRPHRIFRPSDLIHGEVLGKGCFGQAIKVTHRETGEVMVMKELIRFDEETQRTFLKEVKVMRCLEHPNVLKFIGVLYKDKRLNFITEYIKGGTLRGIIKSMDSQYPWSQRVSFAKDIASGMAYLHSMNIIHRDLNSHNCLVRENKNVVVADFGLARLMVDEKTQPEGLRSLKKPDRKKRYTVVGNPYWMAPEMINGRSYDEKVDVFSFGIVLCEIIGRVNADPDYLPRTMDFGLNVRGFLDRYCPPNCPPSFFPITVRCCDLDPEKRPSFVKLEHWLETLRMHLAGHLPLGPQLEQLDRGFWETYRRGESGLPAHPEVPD
G protein-coupled receptor kinase 4 (Homo sapiens), sequence (P32298 whole entry, looked up, the tested form may be a part): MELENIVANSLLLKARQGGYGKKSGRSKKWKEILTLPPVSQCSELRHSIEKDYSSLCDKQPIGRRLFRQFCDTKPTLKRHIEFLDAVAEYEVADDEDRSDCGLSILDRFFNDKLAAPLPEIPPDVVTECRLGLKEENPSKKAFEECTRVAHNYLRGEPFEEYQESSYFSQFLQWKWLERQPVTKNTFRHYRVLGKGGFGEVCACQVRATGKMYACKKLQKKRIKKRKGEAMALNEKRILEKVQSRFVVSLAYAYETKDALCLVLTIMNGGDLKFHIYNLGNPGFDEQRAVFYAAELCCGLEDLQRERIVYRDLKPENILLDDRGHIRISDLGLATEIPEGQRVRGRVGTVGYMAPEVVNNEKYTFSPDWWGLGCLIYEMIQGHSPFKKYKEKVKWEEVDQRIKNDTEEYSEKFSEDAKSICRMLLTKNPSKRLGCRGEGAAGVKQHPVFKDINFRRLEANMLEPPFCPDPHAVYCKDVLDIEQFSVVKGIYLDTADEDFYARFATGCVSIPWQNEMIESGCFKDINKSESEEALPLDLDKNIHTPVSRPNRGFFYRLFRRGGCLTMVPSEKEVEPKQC
Protein-tyrosine kinase 2-beta (Homo sapiens), sequence (Q14289 whole entry, looked up): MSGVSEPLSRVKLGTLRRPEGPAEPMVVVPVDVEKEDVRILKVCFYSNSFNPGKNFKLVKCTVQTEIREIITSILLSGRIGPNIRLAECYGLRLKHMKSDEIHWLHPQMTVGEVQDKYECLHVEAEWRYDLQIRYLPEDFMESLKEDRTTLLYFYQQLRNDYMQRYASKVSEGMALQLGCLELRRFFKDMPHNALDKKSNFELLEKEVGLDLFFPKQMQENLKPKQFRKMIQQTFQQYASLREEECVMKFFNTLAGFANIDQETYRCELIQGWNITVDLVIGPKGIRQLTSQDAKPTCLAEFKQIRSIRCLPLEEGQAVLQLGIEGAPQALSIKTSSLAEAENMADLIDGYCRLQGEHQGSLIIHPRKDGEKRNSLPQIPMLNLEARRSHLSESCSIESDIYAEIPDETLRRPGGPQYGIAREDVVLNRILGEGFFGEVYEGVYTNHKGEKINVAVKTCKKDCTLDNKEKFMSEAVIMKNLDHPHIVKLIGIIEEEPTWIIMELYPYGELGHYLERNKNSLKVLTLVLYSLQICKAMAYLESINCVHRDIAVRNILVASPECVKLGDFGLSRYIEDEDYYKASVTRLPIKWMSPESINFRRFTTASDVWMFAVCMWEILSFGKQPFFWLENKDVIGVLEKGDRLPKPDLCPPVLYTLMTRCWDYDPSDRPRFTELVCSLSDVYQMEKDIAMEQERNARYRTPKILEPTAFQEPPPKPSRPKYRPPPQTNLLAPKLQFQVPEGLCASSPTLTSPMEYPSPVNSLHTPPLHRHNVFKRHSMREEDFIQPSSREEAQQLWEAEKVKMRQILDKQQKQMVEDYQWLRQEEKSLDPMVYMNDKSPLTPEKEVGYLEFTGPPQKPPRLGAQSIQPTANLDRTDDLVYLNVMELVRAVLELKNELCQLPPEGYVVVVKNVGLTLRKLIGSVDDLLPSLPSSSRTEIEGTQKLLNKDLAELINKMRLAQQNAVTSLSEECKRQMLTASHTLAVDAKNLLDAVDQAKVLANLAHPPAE

In the case of `COc1cc2ncnc(N[C@H](C)c3cccc4ccccc34)c2cc1OC`, the Activity in [1] was 70%; in assay [2] it was 98%; in assay [3], 99%; in assay [4], 82%; in assay [5], 93%; in assay [6], 61%. Besides, the Activity in [7] turned out to be 87%; in assay [8], 62%; in assay [10], 81%; in assay [11], 100%. In addition, the result in [9] was Active.
